From BindingDB's records for doi:10.1016/j.bmcl.2008.01.016 (Merck Research Laboratories, 2008)

Experiment: Antagonist activity at human CCR2 assessed as inhibition of MCP1-induced monocyte chemotaxis

C[C@H]1CN([C@@H]2CC[C@@]3(CCO[C@H]3OCc3cc(F)cc(C(F)(F)F)c3)C2)CC[C@@]12C=Cc1ccccc12
IC50: 2.5 nM
